Assays:
CPC-N = assay: cells; assay type: functional, cell-based; settings: Homo sapiens;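 further: growth inhibition of CPC-N cells, with a cell viability assay as the readout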
Description: SANGER: Inhibition of human CPC-N cell growth in a cell viability assay.

Ca9-22 = assay: cells; assay type: functional, cell-based; settings: Homo sapiens;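 further: growth inhibition of Ca9-22 cells, read out with a cell viability assay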
Description: SANGER: Inhibition of human Ca9-22 cell growth in a cell viability assay.

Capan-2 = assay: cells; assay type: functional, cell-based; settings: Homo sapiens;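 further: Capan-2 cell growth inhibition, read out with a viability assay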
Description: SANGER: Inhibition of human Capan-2 cell growth in a cell viability assay.

D-542MG = assay: cells; assay type: functional, cell-based; settings: Homo sapiens
Description: SANGER: Inhibition of human D-542MG cell growth in a cell viability assay.

DMS-153 = assay: cells; assay type: functional, cell-based; settings: Homo sapiens
Description: SANGER: Inhibition of human DMS-153 cell growth in a cell viability assay.

EGI-1 = assay: cells; assay type: functional, cell-based; settings: Homo sapiens;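 further: cell viability readout used to gauge growth inhibition of EGI-1 cells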
Description: SANGER: Inhibition of human EGI-1 cell growth in a cell viability assay.

G-402 = assay: cells; assay type: functional, cell-based; settings: Homo sapiens
Description: SANGER: Inhibition of human G-402 cell growth in a cell viability assay.

GMS-10 = assay: cells; assay type: functional, cell-based; settings: Homo sapiens;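 further: growth inhibition of GMS-10 cells, read out as cell viability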
Description: SANGER: Inhibition of human GMS-10 cell growth in a cell viability assay.

H4 = assay: cells; assay type: functional, cell-based; settings: Homo sapiens
Description: SANGER: Inhibition of human H4 cell growth in a cell viability assay.

HSC-3 = assay: cells; assay type: functional, cell-based; settings: Homo sapiens
Description: SANGER: Inhibition of human HSC-3 cell growth in a cell viability assay.

HuP-T4 = assay: cells; assay type: functional, cell-based; settings: Homo sapiens;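 further: cell viability assay measuring how much HuP-T4 cell growth is inhibited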
Description: SANGER: Inhibition of human HuP-T4 cell growth in a cell viability assay.

J82 = assay: cells; assay type: functional, cell-based; settings: Homo sapiens;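 further: growth inhibition of J82 cells, read out with a cell viability assay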
Description: SANGER: Inhibition of human J82 cell growth in a cell viability assay.

JIYOYE = assay: cells; assay type: functional, cell-based; settings: Homo sapiens
Description: SANGER: Inhibition of human JiyoyeP-2003 cell growth in a cell viability assay.

K052 = assay: cells; assay type: functional, cell-based; settings: Homo sapiens;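 further: Read-out from a cell viability assay, IC50 reflecting suppression of K052 cell growth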
Description: SANGER: Inhibition of human K052 cell growth in a cell viability assay.

KP-N-YN = assay: cells; assay type: functional, cell-based; settings: Homo sapiens;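 further: growth inhibition of KP-N-YN cells, read out with a cell viability assay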
Description: SANGER: Inhibition of human KP-N-YN cell growth in a cell viability assay.

KYSE-140 = assay: cells; assay type: functional, cell-based; settings: Homo sapiens;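 further: cell viability assay measuring growth inhibition in human KYSE-140 cells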
Description: SANGER: Inhibition of human KYSE-140 cell growth in a cell viability assay.

KYSE-410 = assay: cells; assay type: functional, cell-based; settings: Homo sapiens;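 further: growth inhibition of KYSE-410 cells, measured through a cell viability readout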
Description: SANGER: Inhibition of human KYSE-410 cell growth in a cell viability assay.

LC4-1 = assay: cells; assay type: functional, cell-based; settings: Homo sapiens;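 further: growth inhibition of LC4-1 cells, read out with a cell viability assay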
Description: SANGER: Inhibition of human LC4-1 cell growth in a cell viability assay.

LCLC-97TM1 = assay: cells; assay type: functional, cell-based; settings: Homo sapiens;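 further: cell viability assay measuring growth inhibition of human LCLC-97TM1 cells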
Description: SANGER: Inhibition of human LCLC-97TM1 cell growth in a cell viability assay.

LU-165 = assay: cells; assay type: functional, cell-based; settings: Homo sapiens
Description: SANGER: Inhibition of human LU-165 cell growth in a cell viability assay.

LU-99A = assay: cells; assay type: functional, cell-based; settings: Homo sapiens;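 further: growth inhibition of LU-99A cells, read out with a cell viability assay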
Description: SANGER: Inhibition of human LU-99A cell growth in a cell viability assay.

M14 = assay: cells; assay type: functional, cell-based; settings: Homo sapiens;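 further: growth inhibition of M14 cells, read out with a cell viability assay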
Description: SANGER: Inhibition of human M14 cell growth in a cell viability assay.

MDA-MB-134-VI = assay: cells; assay type: functional, cell-based; settings: Homo sapiens
Description: SANGER: Inhibition of human MDA-MB-134-VI cell growth in a cell viability assay.

MDA-MB-157 = assay: cells; assay type: functional, cell-based; settings: Homo sapiens
Description: SANGER: Inhibition of human MDA-MB-157 cell growth in a cell viability assay.

MDA-MB-453 = assay: cells; assay type: functional, cell-based; settings: Homo sapiens
Description: SANGER: Inhibition of human MDA-MB-453 cell growth in a cell viability assay.

MEL-JUSO = assay: cells; assay type: functional, cell-based; settings: Homo sapiens;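 further: growth inhibition of human MEL-JUSO cells, read out with a cell viability assay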
Description: SANGER: Inhibition of human MEL-JUSO cell growth in a cell viability assay.

NB1 = assay: cells; assay type: functional, cell-based; settings: Homo sapiens
Description: SANGER: Inhibition of human NB1 cell growth in a cell viability assay.

NB12 = assay: cells; assay type: functional, cell-based; settings: Homo sapiens;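 further: growth inhibition of human NB12 cells, read out by a cell viability assay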
Description: SANGER: Inhibition of human NB12 cell growth in a cell viability assay.

NCI-H1693 = assay: cells; assay type: functional, cell-based; settings: Homo sapiens;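 further: growth inhibition of the human cell line, read out with a cell viability assay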
Description: SANGER: Inhibition of human NCI-H1693 cell growth in a cell viability assay.

NCI-H187 = assay: cells; assay type: functional, cell-based; settings: Homo sapiens;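 further: growth inhibition of NCI-H187 cells, read out as cell viability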
Description: SANGER: Inhibition of human NCI-H187 cell growth in a cell viability assay.

NCI-H1993 = assay: cells; assay type: functional, cell-based; settings: Homo sapiens;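 further: growth inhibition of the cancer cell line, assessed with a cell viability assay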
Description: SANGER: Inhibition of human NCI-H1993 cell growth in a cell viability assay.

NCI-H2030 = assay: cells; assay type: functional, cell-based; settings: Homo sapiens;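 further: growth inhibition of human NCI-H2030 cells, read out by a cell viability assay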
Description: SANGER: Inhibition of human NCI-H2030 cell growth in a cell viability assay.

NCI-H2081 = assay: cells; assay type: functional, cell-based; settings: Homo sapiens;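 further: growth inhibition of human NCI-H2081 cells, read out with a cell viability assay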
Description: SANGER: Inhibition of human NCI-H2081 cell growth in a cell viability assay.

NCI-H2171 = assay: cells; assay type: functional, cell-based; settings: Homo sapiens;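 further: growth inhibition of human NCI-H2171 cells, read out by a cell viability assay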
Description: SANGER: Inhibition of human NCI-H2171 cell growth in a cell viability assay.

NCI-H64 = assay: cells; assay type: functional, cell-based; settings: Homo sapiens;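 further: growth inhibition of NCI-H64 cells, read out with a cell viability assay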
Description: SANGER: Inhibition of human NCI-H64 cell growth in a cell viability assay.

NCI-H719 = assay: cells; assay type: functional, cell-based; settings: Homo sapiens;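 further: growth inhibition of the cultured cell line, read out with a viability assay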
Description: SANGER: Inhibition of human NCI-H719 cell growth in a cell viability assay.

NCI-H810 = assay: cells; assay type: functional, cell-based; settings: Homo sapiens;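 further: IC50 reflects inhibition of cancer cell line growth, read out with a cell viability assay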
Description: SANGER: Inhibition of human NCI-H810 cell growth in a cell viability assay.

SNU-16 = assay: cells; assay type: functional, cell-based; settings: Homo sapiens;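 further: growth inhibition of human SNU-16 cells, determined with a cell viability readout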
Description: SANGER: Inhibition of human NCI-SNU-16 cell growth in a cell viability assay.

NUGC-3 = assay: cells; assay type: functional, cell-based; settings: Homo sapiens;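 further: growth inhibition of human NUGC-3 cells, read out with a cell viability assay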
Description: SANGER: Inhibition of human NUGC-3 cell growth in a cell viability assay.

OAW-42 = assay: cells; assay type: functional, cell-based; settings: Homo sapiens;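 further: growth inhibition of OAW-42 cells, read out with a cell viability assay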
Description: SANGER: Inhibition of human OAW-42 cell growth in a cell viability assay.

OE19 = assay: cells; assay type: functional, cell-based; settings: Homo sapiens;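 further: growth inhibition of OE19 cells, measured through a cell viability read-out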
Description: SANGER: Inhibition of human OE19 cell growth in a cell viability assay.

OVCAR-3 = assay: cells; assay type: functional, cell-based; settings: Homo sapiens;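 further: growth inhibition of human OVCAR-3 cells, determined by a cell viability assay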
Description: SANGER: Inhibition of human OVCAR-3 cell growth in a cell viability assay.

P31-FUJ = assay: cells; assay type: functional, cell-based; settings: Homo sapiens;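 further: growth inhibition of P31-FUJ cells, read out with a viability assay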
Description: SANGER: Inhibition of human P31-FUJ cell growth in a cell viability assay.

PF-382 = assay: cells; assay type: functional, cell-based; settings: Homo sapiens
Description: SANGER: Inhibition of human PF-382 cell growth in a cell viability assay.

RERF-LC-MS = assay: cells; assay type: functional, cell-based; settings: Homo sapiens;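 further: growth inhibition of human RERF-LC-MS cells, read out by a cell viability assay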
Description: SANGER: Inhibition of human RERF-LC-MS cell growth in a cell viability assay.

RPMI-7951 = assay: cells; assay type: functional, cell-based; settings: Homo sapiens
Description: SANGER: Inhibition of human RPMI-7951 cell growth in a cell viability assay.

SK-HEP1 = assay: cells; assay type: functional, cell-based, SK-HEP-1; settings: Homo sapiens;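 further: cell viability readout used to quantify reduction in proliferation of human SK-HEP-1 cells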
Description: SANGER: Inhibition of human SK-HEP-1 cell growth in a cell viability assay.

SK-MM-2 = assay: cells; assay type: functional, cell-based; settings: Homo sapiens;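 further: growth inhibition of human SK-MM-2 cells, read out with a cell viability assay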
Description: SANGER: Inhibition of human SK-MM-2 cell growth in a cell viability assay.

SR = assay: cells; assay type: functional, cell-based; settings: Homo sapiens
Description: SANGER: Inhibition of human SR cell growth in a cell viability assay.

A2058 = assay: cells; assay type: functional, cell-based; settings: Homo sapiens;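 further: reduction of A2058 cell growth, read out with a viability assay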
Description: SANGER: Inhibition of human A2058 cell growth in a cell viability assay.

AGS = assay: cells; assay type: functional, cell-based; settings: Homo sapiens;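 further: growth inhibition of AGS cells, determined with a cell viability assay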
Description: SANGER: Inhibition of human AGS cell growth in a cell viability assay.

BFTC-909 = assay: cells; assay type: functional, cell-based; settings: Homo sapiens
Description: SANGER: Inhibition of human BFTC-909 cell growth in a cell viability assay.

BL-41 = assay: cells; assay type: functional, cell-based; settings: Homo sapiens;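 further: growth inhibition of human BL-41 cells, read out with a cell viability assay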
Description: SANGER: Inhibition of human BL-41 cell growth in a cell viability assay.

BT-20 = assay: cells; assay type: functional, cell-based; settings: Homo sapiens;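 further: cell viability assay measuring suppression of growth in human BT-20 cells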
Description: SANGER: Inhibition of human BT-20 cell growth in a cell viability assay.

C32 = assay: cells; assay type: functional, cell-based; settings: Homo sapiens;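 further: cell viability assay, with IC50 reflecting inhibition of C32 cell growth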
Description: SANGER: Inhibition of human C32 cell growth in a cell viability assay.

CAKI-1 = assay: cells; assay type: functional, cell-based; settings: Homo sapiens;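 further: growth inhibition of CAKI-1 cells, measured by a cell viability assay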
Description: SANGER: Inhibition of human CAKI-1 cell growth in a cell viability assay.

TE-441-T = assay: cells; assay type: functional, cell-based; settings: Homo sapiens
Description: SANGER: Inhibition of human TE-441-T cell growth in a cell viability assay.

TYK-nu = assay: cells; assay type: functional, cell-based; settings: Homo sapiens;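 further: growth inhibition of human TYK-nu cells, read out by a cell viability assay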
Description: SANGER: Inhibition of human TYK-nu cell growth in a cell viability assay.

U-251 = assay: cells; assay type: functional, cell-based; settings: Homo sapiens;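 further: growth inhibition of human U-251 cells, read out through a cell viability assay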
Description: SANGER: Inhibition of human U251 cell growth in a cell viability assay.

UACC-812 = assay: cells; assay type: functional, cell-based; settings: Homo sapiens
Description: SANGER: Inhibition of human UACC-812 cell growth in a cell viability assay.

UMUC3 = assay: cells; assay type: functional, cell-based; settings: Homo sapiens;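 further: growth inhibition of human UM-UC-3 cells, read out with a cell viability assay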
Description: SANGER: Inhibition of human UM-UC-3 cell growth in a cell viability assay.

YAPC = assay: cells; assay type: functional, cell-based; settings: Homo sapiens;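 further: growth inhibition of YAPC cells, measured with a cell viability assay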
Description: SANGER: Inhibition of human YAPC cell growth in a cell viability assay.

YT = assay: cells; assay type: functional, cell-based; settings: Homo sapiens
Description: SANGER: Inhibition of human YT cell growth in a cell viability assay.

CESS = assay: SANGER: Inhibition of human CESS cell growth in a cell viability assay.; assay type: functional, cell-based
COLO-680N = assay: cells; assay type: functional, cell-based; settings: Homo sapiens;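 further: cell viability assay used to measure inhibition of COLO-680N cell growth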
Description: SANGER: Inhibition of human COLO-680N cell growth in a cell viability assay.

For `C/C(O)=C(\C#N)C(=O)Nc1cc(Br)ccc1Br`, the IC50 (CPC-N) was over 16 µM, the IC50 (Ca9-22) was over 16 µM and the IC50 (Capan-2) was over 16 µM. The IC50 (D-542MG) was over 16 µM, the IC50 (DMS-153) was over 16 µM and the IC50 (EGI-1) was over 16 µM. For the same compound, the IC50 (G-402) was over 16 µM, the IC50 (GMS-10) was over 16 µM and the IC50 (H4) was over 16 µM. For the same compound, the IC50 (HSC-3) was over 16 µM, the IC50 (HuP-T4) was over 16 µM and the IC50 (J82) was over 16 µM. The IC50 (JIYOYE) was over 16 µM, the IC50 (K052) was over 16 µM and the IC50 (KP-N-YN) was over 16 µM. It also gave an IC50 (KYSE-140) of over 16 µM, an IC50 (KYSE-410) of over 16 µM and an IC50 (LC4-1) of over 16 µM. The IC50 (LCLC-97TM1) was over 16 µM, the IC50 (LU-165) was over 16 µM and the IC50 (LU-99A) was over 16 µM. It also gave an IC50 (M14) of over 16 µM, an IC50 (MDA-MB-134-VI) of over 16 µM and an IC50 (MDA-MB-157) of over 16 µM. The IC50 (MDA-MB-453) was over 16 µM, the IC50 (MEL-JUSO) was over 16 µM and the IC50 (NB1) was over 16 µM. The IC50 (NB12) was over 16 µM, the IC50 (NCI-H1693) was over 16 µM and the IC50 (NCI-H187) was over 16 µM. For the same compound, the IC50 (NCI-H1993) was over 16 µM, the IC50 (NCI-H2030) was over 16 µM and the IC50 (NCI-H2081) was over 16 µM. The IC50 (NCI-H2171) was over 16 µM, the IC50 (NCI-H64) was over 16 µM and the IC50 (NCI-H719) was over 16 µM. The IC50 (NCI-H810) was over 16 µM, the IC50 (SNU-16) was over 16 µM and the IC50 (NUGC-3) was over 16 µM. It also gave an IC50 (OAW-42) of over 16 µM, an IC50 (OE19) of over 16 µM and an IC50 (OVCAR-3) of over 16 µM. The IC50 (P31-FUJ) was over 16 µM, the IC50 (PF-382) was over 16 µM and the IC50 (RERF-LC-MS) was over 16 µM. It also gave an IC50 (RPMI-7951) of over 16 µM, an IC50 (SK-HEP1) of over 16 µM and an IC50 (SK-MM-2) of over 16 µM. The IC50 (SR) was over 16 µM, the IC50 (A2058) was over 16 µM and the IC50 (AGS) was over 16 µM. The IC50 (BFTC-909) was over 16 µM, the IC50 (BL-41) was over 16 µM and the IC50 (BT-20) was over 16 µM. It also gave an IC50 (C32) of over 16 µM, an IC50 (CAKI-1) of over 16 µM and an IC50 (TE-441-T) of over 16 µM. The IC50 (TYK-nu) was over 16 µM, the IC50 (U-251) was over 16 µM and the IC50 (UACC-812) was over 16 µM. The IC50 (UMUC3) was over 16 µM, the IC50 (YAPC) was over 16 µM and the IC50 (YT) was over 16 µM. It also gave an IC50 (CESS) of over 16 µM and an IC50 (COLO-680N) of over 16 µM.
`CC(O)(CS(=O)(=O)c1ccc(F)cc1)C(=O)Nc1ccc(C#N)c(C(F)(F)F)c1` (stereo not given) [BICALUTAMIDE] gave an IC50 (CPC-N) of over 1.02 µM, an IC50 (Ca9-22) of over 1.02 µM and an IC50 (Capan-2) of over 1.02 µM. It also gave an IC50 (D-542MG) of over 1.02 µM, an IC50 (DMS-153) of over 1.02 µM and an IC50 (EGI-1) of over 1.02 µM. For the same compound, the IC50 (G-402) was over 1.02 µM, the IC50 (GMS-10) was over 1.02 µM and the IC50 (H4) was over 1.02 µM. It also gave an IC50 (HSC-3) of over 1.02 µM, an IC50 (HuP-T4) of over 1.02 µM and an IC50 (J82) of over 1.02 µM. It also gave an IC50 (JIYOYE) of over 1.02 µM, an IC50 (K052) of over 1.02 µM and an IC50 (KP-N-YN) of over 1.02 µM. For the same compound, the IC50 (KYSE-140) was over 1.02 µM, the IC50 (KYSE-410) was over 1.02 µM and the IC50 (LC4-1) was over 1.02 µM. For the same compound, the IC50 (LCLC-97TM1) was over 1.02 µM, the IC50 (LU-165) was over 1.02 µM and the IC50 (LU-99A) was over 1.02 µM. The IC50 (M14) was over 1.02 µM, the IC50 (MDA-MB-134-VI) was over 1.02 µM and the IC50 (MDA-MB-157) was over 1.02 µM. For the same compound, the IC50 (MDA-MB-453) was over 1.02 µM, the IC50 (MEL-JUSO) was over 1.02 µM and the IC50 (NB1) was over 1.02 µM. The IC50 (NB12) was over 1.02 µM, the IC50 (NCI-H1693) was over 1.02 µM and the IC50 (NCI-H187) was over 1.02 µM. For the same compound, the IC50 (NCI-H1993) was over 1.02 µM, the IC50 (NCI-H2030) was over 1.02 µM and the IC50 (NCI-H2081) was over 1.02 µM. It also gave an IC50 (NCI-H2171) of over 1.02 µM, an IC50 (NCI-H64) of over 1.02 µM and an IC50 (NCI-H719) of over 1.02 µM. The IC50 (NCI-H810) was over 1.02 µM, the IC50 (SNU-16) was over 1.02 µM and the IC50 (NUGC-3) was over 1.02 µM. It also gave an IC50 (OAW-42) of over 1.02 µM, an IC50 (OE19) of over 1.02 µM and an IC50 (OVCAR-3) of over 1.02 µM. The IC50 (P31-FUJ) was over 1.02 µM, the IC50 (PF-382) was over 1.02 µM and the IC50 (RERF-LC-MS) was over 1.02 µM. The IC50 (RPMI-7951) was over 1.02 µM, the IC50 (SK-HEP1) was over 1.02 µM and the IC50 (SK-MM-2) was over 1.02 µM. For the same compound, the IC50 (SR) was over 1.02 µM, the IC50 (A2058) was over 1.02 µM and the IC50 (AGS) was over 1.02 µM. It also gave an IC50 (BFTC-909) of over 1.02 µM, an IC50 (BL-41) of over 1.02 µM and an IC50 (BT-20) of over 1.02 µM. For the same compound, the IC50 (C32) was over 1.02 µM, the IC50 (CAKI-1) was over 1.02 µM and the IC50 (TE-441-T) was over 1.02 µM. The IC50 (TYK-nu) was over 1.02 µM, the IC50 (U-251) was over 1.02 µM and the IC50 (UACC-812) was over 1.02 µM. It also gave an IC50 (UMUC3) of over 1.02 µM, an IC50 (YAPC) of over 1.02 µM and an IC50 (YT) of over 1.02 µM. The IC50 (CESS) was over 1.02 µM and the IC50 (COLO-680N) was over 1.02 µM.

Reference: ChEMBL document CHEMBL1201861, “Genomics of Drug Sensitity in Cancer screening data, Wellcome Trust Sanger Institute”
